Experimental data published in PubChem BioAssay AID1053141 (Broad Institute, 2014).
Records with an inconclusive call do not appear. The source made the active and inactive calls.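 Rule for the calls: active = compounds lowering cell ATP signal, with AC50 no higher than twice their own top valid dose; inconclusive = flat curve with 30 to 70% signal loss, or poor fit; inactive = the rest, including signal rises.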

Tests used:
[1] = test system: HEK293T viability, CellTiter-Glo ATP luminescence, 72 h; test: viability loss in HEK293 kidney cells – cell-based, ATP luminescence, dry powder, set 19, cytotoxicity control, dose response (AID 1053141)
[2] = as above; details: HEK293T viability, CellTiter-Glo ATP luminescence, 72 h

SMILES	AC50 [1]	also measured
CCCC(=O)Nc1ccc2c(c1)OC[C@H](C)N(Cc1ccccc1)C[C@H](C)[C@@H](OC)CN(C)C2=O	> 52 µM (inactive)	–
CCCNC(=O)Nc1ccc2c(c1)OC[C@H](C)N(Cc1ccc(-c3ccccn3)cc1)C[C@H](C)[C@@H](OC)CN(C)C2=O	–	activity change, negative = cytotoxicity ([2]; at 26 µM (top of the series)): 12.5% (inactive)
CO[C@H]1CN(C)C(=O)c2cc(NC(=O)C(C)C)ccc2OC[C@H](C)N(Cc2ccc(-c3ccccn3)cc2)C[C@@H]1C	52.3 µM	–
CO[C@H]1CN(C)C(=O)c2cc(Nc3ncccn3)ccc2OC[C@H](C)N(Cc2ccc(-c3ccccn3)cc2)C[C@@H]1C	24.5 µM	–
CO[C@H]1CN(C)C(=O)c2cc(NC(=O)NC(C)C)ccc2OC[C@H](C)N(C(=O)c2ccc(-c3ccccn3)cc2)C[C@@H]1C	–	activity change, negative = cytotoxicity ([2]; at 50 µM (top of the series)): -14% (inactive)
CO[C@H]1CN(C)C(=O)c2cc(NC(=O)NC(C)C)ccc2OC[C@H](C)N(Cc2ccc(-c3ccncc3)cc2)C[C@@H]1C	30.7 µM	–
CO[C@H]1CN(C)C(=O)c2cc(NC(=O)NC(C)C)ccc2OC[C@H](C)NC[C@@H]1C	> 100 µM (inactive)	–
CO[C@H]1CN(C)C(=O)c2cc(Nc3c(NC4CC4)c(=O)c3=O)ccc2OC[C@H](C)N(Cc2ccc(-c3ccccn3)cc2)C[C@@H]1C	15 µM	–
CO[C@H]1CN(C)C(=O)c2ccc(NC(=O)NC(C)C)cc2OC[C@H](C)N(Cc2ccc(-c3ccccn3)cc2)C[C@@H]1C	–	activity change, negative = cytotoxicity ([2]; at 26 µM (top of the series)): -6.54% (inactive)
CCC(CC)Nc1c(Nc2ccc3c(c2)C(=O)N(C)C[C@H](OC)[C@@H](C)CN(Cc2ccc(-c4ccccn4)cc2)[C@@H](C)CO3)c(=O)c1=O	39.8 µM	–
CO[C@H]1CN(C)C(=O)c2cc(NC(=O)NC(C)C)ccc2OC[C@H](C)N(Cc2ccccc2F)C[C@@H]1C	27.4 µM	–
CCCNC(=O)Nc1ccc2c(c1)OC[C@H](C)N(Cc1ccccc1)C[C@H](C)[C@@H](OC)CN(C)C2=O	–	activity change, negative = cytotoxicity ([2]; at 26 µM (top of the series)): 49.2% (inactive)
CO[C@H]1CN(C)C(=O)c2cc(NC(=O)NC(C)C)ccc2OC[C@H](C)N(Cc2cncnc2)C[C@@H]1C	–	activity change, negative = cytotoxicity ([2]; at 50 µM (top of the series)): 24.6% (inactive)
CO[C@H]1CN(C)C(=O)c2cc(NC(=O)NC(C)C)ccc2OC[C@H](C)N(C(=O)c2ccccc2)C[C@@H]1C	–	activity change, negative = cytotoxicity ([2]; at 50 µM (top of the series)): 13.8% (inactive)
CO[C@H]1CN(C)C(=O)c2cc(NC(=O)NC(C)C)ccc2OC[C@H](C)N(Cc2ccc(-c3ccccn3)cc2)C[C@@H]1C	27 µM	–
CO[C@H]1CN(C)C(=O)c2ccc(NC(=O)NC(C)C)cc2OC[C@H](C)N(Cc2ccccc2)C[C@@H]1C	–	activity change, negative = cytotoxicity ([2]; at 26 µM (top of the series)): 94.8% (inactive)
CO[C@H]1CN(C)C(=O)c2cc(NC(=O)NC(C)C)ccc2OC[C@H](C)N(Cc2cccc(F)c2)C[C@@H]1C	35.8 µM	–
CO[C@H]1CN(C)C(=O)c2cc(NC(=O)NC(C)C)ccc2OC[C@H](C)N(Cc2ccccc2)C[C@@H]1C	44.5 µM	–
CO[C@H]1CN(C)C(=O)c2cc(Nc3c(NC4CCCC4)c(=O)c3=O)ccc2OC[C@H](C)N(Cc2ccc(-c3ccccn3)cc2)C[C@@H]1C	13.8 µM	–
CO[C@H]1CN(C)C(=O)c2cc(NC(=O)NC(C)C)ccc2OC[C@H](C)N(Cc2ccc(F)cc2)C[C@@H]1C	29.7 µM	–
CO[C@H]1CN(C)C(=O)c2cc(NC(=O)NC(C)C)ccc2OC[C@H](C)N(Cc2ccccn2)C[C@@H]1C	–	activity change, negative = cytotoxicity ([2]; at 50 µM (top of the series)): 43.7% (inactive)
CO[C@H]1CN(C)C(=O)c2cc(NC(=O)NC(C)C)ccc2OC[C@H](C)N(Cc2cccnc2)C[C@@H]1C	–	activity change, negative = cytotoxicity ([2]; at 50 µM (top of the series)): 30.5% (inactive)
CCCC(=O)Nc1ccc2c(c1)OC[C@H](C)N(Cc1ccc(-c3ccccn3)cc1)C[C@H](C)[C@@H](OC)CN(C)C2=O	–	activity change, negative = cytotoxicity ([2]; at 26 µM (top of the series)): 4.89% (inactive)
CO[C@H]1CN(C)C(=O)c2cc(NC(=O)NC(C)C)ccc2OC[C@H](C)N(Cc2ccc(-c3cccnc3)cc2)C[C@@H]1C	37.7 µM	–
CO[C@H]1CN(C)C(=O)c2cc(NC(=O)NC(C)C)ccc2OC[C@H](C)N(C(=O)Nc2ccc(-c3ccccn3)cc2)C[C@@H]1C	> 100 µM (inactive)	–
CO[C@H]1CN(C)C(=O)c2cc(NC(=O)NC(C)C)ccc2OC[C@H](C)N(Cc2ccncc2)C[C@@H]1C	–	activity change, negative = cytotoxicity ([2]; at 50 µM (top of the series)): -29.6% (inactive)
